What was measured:
FGFR4 (h) = FGFR4 (h) (Homo sapiens, UniProt P22455); experiment: FGFR4 (enzymatic assay), TR-FRET; type: biochemical; details: read-out: FGFR 4 pIC50 (converted)
Method: In a final reaction volume of 30 μL, FGFR4 (h) (60 ng/ml) was incubated with 50 mM HEPES pH 7.5, 6 mM MnCl2, 1 mM DTT, 0.1 mM Na3VO4, 0.01% Triton-X-100, 500 nM Btn-Flt3 and 5 μM ATP in the presence of compound (1% DMSO final). […] Time-Resolved Fluorescence Resonance Energy Transfer (TR-FRET) signal (ex340 nm. Em 620 nm, em 655 nm) was measured afterwards and results are expressed in RFU (Relative Fluorescence Units).

KDR (h) (VEGFR2) = KDR (h) (VEGFR2) (Homo sapiens, UniProt P35968); experiment: KDR (VEGFR2) (enzymatic assay), TR-FRET; type: biochemical
Method: KDR (VEGFR2) (Enzymatic Assay)
In a final reaction volume of 30 μL, KDR (h) (150 ng/ml) was incubated with 50 mM HEPES pH 7.5, 6 mM MnCl2, 1 mM DTT, 0.1 mM Na3VO4, 0.01% Triton-X-100, 500 nM Btn-Flt3 and 3 μM ATP in the presence of compound (1% DMSO final). After incubation for 120 minutes at room temperature the reaction was stopped with 2.27 nM EU-anti P-Tyr, 7 mM EDTA, 31.25 nM SA-XL-665 and 0.02% BSA which was present for 60 minutes at room temperature. Time-Resolved Fluorescence Resonance Energy Transfer (TR-FRET) signal (ex340 nm. Em 620 nm, em 655 nm) was measured afterwards and results are expressed in RFU (Relative Fluorescence Units).

[1] = test system: Ba/F3-FGFR1-transfected cells in the presence of 10 ng/ml murine IL3; experiment: Ba/F3-FGFR1 (plus IL3) cellular proliferation counterscreen, Alamar Blue; type: cell-based; details: Mus musculus; plus IL3, 384 well; read-out: BAF3-FGFR 1 (PLUS IL3) 384 well pIC50 (converted)
Method: Ba/F3-FGFR1 (Minus IL3 or Plus IL3) (Cellular Proliferation Assay)
(§1) In a 384 well plate, 100 nl of compound dilution in DMSO was sprayed before adding 50 μl cell culture medium (phenol red free RPMI-1640, 10% FBS, 2 mM L-Glutamine and 50 μg/ml Gentamycin) containing 20000 cells per well of Ba/F3-FGFR1-transfected cells. Cells were put in an incubator at 37° C. and 5% CO2. After 24 hours, 10 μl of Alamar Blue solution (0.5 mM K3Fe(CN)6, 0.5 mM KaFe(CN)6, 0.15 mM Resazurin and 100 mM Phosphate Buffer) was added to the wells, incubated for 4 hours at 37° C. and 5% CO2 before RFU's (Relative Fluorescence Units) (ex. 540 nm., em. 590 nm.) were measured in a flurorescence plate reader.
(§2) As a counterscreen the same experiment was performed in the presence of 10 ng/ml murine IL3.
as §1, with “a 96” for “a 384”, “plate, 180” for “plate, 100 nl of compound dilution in DMSO was sprayed before adding 50”, “containing 10000” for “containing 20000”, “Ba/F3-FGFR1-transfected cells were pipette and 20 μl of compound dilution in DMSO was added.” for “Ba/F3-FGFR1-transfected cells.”, “hours, 40” for “hours, 10”

[2] = molecular target: Ba/F3-KDR-transfected cells (Homo sapiens, UniProt P35968); experiment: Ba/F3-KDR (minus IL3) cellular proliferation assay, Alamar Blue; type: cell-based
Method: Ba/F3-KDR (Minus IL3 or Plus IL3) (Cellular Proliferation Assay)
as §1, with “Ba/F3-KDR-transfected” for “Ba/F3-FGFR1-transfected”
as §2
as §1, with “a 96” for “a 384”, “plate, 180” for “plate, 100 nl of compound dilution in DMSO was sprayed before adding 50”, “containing 10000” for “containing 20000”, “of Ba/F3-KDR-transfected cells were pipette and 20 μl of compound dilution in DMSO was added.” for “of Ba/F3-FGFR1-transfected cells.”, “hours, 40” for “hours, 10”, “CO2” for “CO2 before”

FGFR4 (h), sequence (P22455 22-802): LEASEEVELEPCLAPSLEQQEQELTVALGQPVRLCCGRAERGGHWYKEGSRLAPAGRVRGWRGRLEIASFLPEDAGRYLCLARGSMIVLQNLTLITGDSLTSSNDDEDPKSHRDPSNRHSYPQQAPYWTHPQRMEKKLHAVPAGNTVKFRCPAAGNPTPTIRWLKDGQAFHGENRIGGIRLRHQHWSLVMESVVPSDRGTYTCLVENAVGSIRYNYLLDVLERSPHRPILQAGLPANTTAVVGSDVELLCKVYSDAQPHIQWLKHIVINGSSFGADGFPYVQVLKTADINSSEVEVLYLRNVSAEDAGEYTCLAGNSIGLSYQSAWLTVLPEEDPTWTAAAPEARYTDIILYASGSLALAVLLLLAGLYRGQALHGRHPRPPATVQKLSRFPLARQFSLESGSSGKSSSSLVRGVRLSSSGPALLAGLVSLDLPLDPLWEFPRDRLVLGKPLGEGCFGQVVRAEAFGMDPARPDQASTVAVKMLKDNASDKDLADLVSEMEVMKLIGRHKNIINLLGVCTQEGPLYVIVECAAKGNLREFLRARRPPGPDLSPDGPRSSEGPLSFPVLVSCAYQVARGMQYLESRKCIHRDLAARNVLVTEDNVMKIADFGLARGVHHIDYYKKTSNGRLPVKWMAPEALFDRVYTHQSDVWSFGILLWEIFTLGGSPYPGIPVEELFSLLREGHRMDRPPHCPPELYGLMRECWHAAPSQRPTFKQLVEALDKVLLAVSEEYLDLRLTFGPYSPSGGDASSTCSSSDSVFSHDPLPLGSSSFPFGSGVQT
Ba/F3-KDR-transfected cells, sequence (P35968 whole entry, change not shown): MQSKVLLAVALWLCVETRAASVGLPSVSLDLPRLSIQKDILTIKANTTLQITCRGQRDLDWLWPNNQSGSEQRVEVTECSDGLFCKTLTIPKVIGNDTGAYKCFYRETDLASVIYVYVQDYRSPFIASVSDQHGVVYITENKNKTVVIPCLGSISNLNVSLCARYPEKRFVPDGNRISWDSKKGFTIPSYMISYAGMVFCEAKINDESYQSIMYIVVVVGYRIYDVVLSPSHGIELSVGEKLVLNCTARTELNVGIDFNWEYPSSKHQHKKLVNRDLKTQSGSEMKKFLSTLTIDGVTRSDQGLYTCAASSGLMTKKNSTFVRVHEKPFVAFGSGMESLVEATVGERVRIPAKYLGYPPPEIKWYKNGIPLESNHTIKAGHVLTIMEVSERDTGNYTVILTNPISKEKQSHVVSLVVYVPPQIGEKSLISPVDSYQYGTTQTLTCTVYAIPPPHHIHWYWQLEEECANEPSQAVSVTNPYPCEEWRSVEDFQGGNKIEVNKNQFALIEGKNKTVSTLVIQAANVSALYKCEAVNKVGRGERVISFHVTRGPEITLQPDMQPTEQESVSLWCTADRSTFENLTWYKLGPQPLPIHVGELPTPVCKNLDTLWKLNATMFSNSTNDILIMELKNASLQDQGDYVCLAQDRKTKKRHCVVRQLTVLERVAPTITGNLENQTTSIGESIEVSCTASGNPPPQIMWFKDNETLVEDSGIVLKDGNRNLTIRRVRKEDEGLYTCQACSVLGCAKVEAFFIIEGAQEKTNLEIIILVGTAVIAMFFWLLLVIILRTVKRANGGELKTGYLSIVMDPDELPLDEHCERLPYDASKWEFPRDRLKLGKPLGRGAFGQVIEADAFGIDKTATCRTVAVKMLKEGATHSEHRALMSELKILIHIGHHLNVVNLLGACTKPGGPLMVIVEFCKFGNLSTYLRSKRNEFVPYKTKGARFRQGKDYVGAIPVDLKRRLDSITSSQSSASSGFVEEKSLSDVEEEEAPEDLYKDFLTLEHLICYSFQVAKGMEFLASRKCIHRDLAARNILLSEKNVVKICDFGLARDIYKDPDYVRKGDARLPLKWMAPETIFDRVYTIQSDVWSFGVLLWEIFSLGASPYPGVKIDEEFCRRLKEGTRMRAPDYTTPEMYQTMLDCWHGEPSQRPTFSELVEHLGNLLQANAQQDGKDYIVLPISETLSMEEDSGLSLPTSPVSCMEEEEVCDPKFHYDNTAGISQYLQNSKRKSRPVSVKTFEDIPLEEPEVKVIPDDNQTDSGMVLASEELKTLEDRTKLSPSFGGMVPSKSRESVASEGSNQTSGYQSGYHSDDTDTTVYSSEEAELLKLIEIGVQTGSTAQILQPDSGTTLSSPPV
KDR (h) (VEGFR2), sequence (P35968 20-1356): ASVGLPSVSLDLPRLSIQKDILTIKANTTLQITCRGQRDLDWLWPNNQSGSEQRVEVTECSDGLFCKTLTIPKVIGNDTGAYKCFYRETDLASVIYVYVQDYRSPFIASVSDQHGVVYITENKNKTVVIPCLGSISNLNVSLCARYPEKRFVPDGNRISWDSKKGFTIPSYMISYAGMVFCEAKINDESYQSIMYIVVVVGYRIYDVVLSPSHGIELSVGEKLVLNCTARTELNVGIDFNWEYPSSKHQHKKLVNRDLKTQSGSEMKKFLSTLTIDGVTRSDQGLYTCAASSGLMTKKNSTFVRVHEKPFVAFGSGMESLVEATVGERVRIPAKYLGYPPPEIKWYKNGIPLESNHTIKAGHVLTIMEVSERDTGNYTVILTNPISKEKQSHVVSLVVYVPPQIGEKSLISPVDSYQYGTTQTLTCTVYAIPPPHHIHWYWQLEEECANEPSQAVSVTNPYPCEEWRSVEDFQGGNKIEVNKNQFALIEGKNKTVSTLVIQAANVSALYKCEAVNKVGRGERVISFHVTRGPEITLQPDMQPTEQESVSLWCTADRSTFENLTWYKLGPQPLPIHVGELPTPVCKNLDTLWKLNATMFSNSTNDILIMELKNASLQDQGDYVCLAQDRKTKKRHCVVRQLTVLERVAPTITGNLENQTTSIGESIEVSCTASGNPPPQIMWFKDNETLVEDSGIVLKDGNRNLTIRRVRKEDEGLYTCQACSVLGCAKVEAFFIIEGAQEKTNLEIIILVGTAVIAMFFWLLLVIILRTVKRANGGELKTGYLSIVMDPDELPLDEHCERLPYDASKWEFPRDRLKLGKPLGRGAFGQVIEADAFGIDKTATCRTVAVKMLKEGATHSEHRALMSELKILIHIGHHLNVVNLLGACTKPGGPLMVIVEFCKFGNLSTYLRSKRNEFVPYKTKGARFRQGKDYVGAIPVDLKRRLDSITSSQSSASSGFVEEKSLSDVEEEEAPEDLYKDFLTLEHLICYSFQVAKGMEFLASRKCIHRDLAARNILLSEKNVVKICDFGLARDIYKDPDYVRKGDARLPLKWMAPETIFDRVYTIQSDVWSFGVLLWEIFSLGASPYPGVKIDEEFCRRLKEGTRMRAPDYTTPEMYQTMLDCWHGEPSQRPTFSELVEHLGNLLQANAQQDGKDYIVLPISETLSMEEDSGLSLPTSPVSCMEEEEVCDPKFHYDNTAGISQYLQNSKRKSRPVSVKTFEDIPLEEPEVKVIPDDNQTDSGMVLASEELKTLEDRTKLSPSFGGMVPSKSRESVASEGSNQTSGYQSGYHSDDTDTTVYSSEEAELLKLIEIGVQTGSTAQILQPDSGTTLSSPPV

| SMILES | IC50 (FGFR4 (h)) | IC50 (KDR (h) (VEGFR2)) | BAF3-KDR (MIN IL3) 384 well pIC50 ([2]; minus IL3) | BAF3-KDR (MIN IL3) 384 well pIC50 ([2]; minus IL3, 384 well) | IC50 [1] |
| --- | --- | --- | --- | --- | --- |
| COc1cc(OC)cc(N(CCCNCCCO)c2ccc3ncc(-c4ccnc(C(=O)NCCCCN)c4)nc3c2)c1 [Compound 132] | 117 nM | 309 nM | 5.04 |  | > 10 µM |
| COc1cc(OC)cc(N(CCCO)c2ccc3ncc(-c4ccnc(C(=O)NCCCCCN)c4)nc3c2)c1 [Compound 130] | 151 nM | 550 nM | <5 |  | > 10 µM |
| COc1cc(OC)cc(N(CCCO)c2ccc3ncc(-c4ccnc(Cl)c4)nc3c2)c1 [Compound 136] | 97.7 nM | 776 nM | <5 |  | > 10 µM |
| COc1cc(OC)cc(N(CCNC(C)C)c2ccc3ncc(C(=O)NCCCN4CCN(C)CC4)nc3c2)c1 [Compound 159] | 490 nM | > 1000 nM | <5 |  | > 10 µM |
| COc1cc(OC)cc(N(CCCNCC(F)(F)F)c2ccc3ncc(C(=O)NCCN4CCOCC4)nc3c2)c1 [Compound 158] | > 1000 nM | > 1000 nM | <5 |  | > 10 µM |
| COc1cc(OC)cc(N(CCO)c2ccc3ncc(C4=CCN(C(=O)OC(C)(C)C)CC4)nc3c2)c1 [Compound 178] | 56.2 nM | > 1000 nM | <5 |  | > 10 µM |
| COc1cc(OC)cc(N(CCCNCC(F)(F)F)c2ccc3ncc(-c4ccnc(C(=O)NCCCCCO)c4)nc3c2)c1 [Compound 150] | 224 nM | 708 nM | <5 |  | > 10 µM |
| COc1cc(OC)cc(N(CCO)c2ccc3ncc(-c4ccccc4CCO)nc3c2)c1 [Compound 151] | 891 nM | > 1000 nM | <5 |  | > 10 µM |
| COc1cc(OC)cc(N(CCO)c2ccc3ncc(-c4ccc(N5CCNCC5)cc4)nc3c2)c1 [Compound 166] | 7.24 nM | 23.4 nM | 5.55 |  | 4.79 µM |
| COc1cc(OC)cc(N(CCCNCC(F)(F)F)c2ccc3ncc(-c4ccnc(Cl)c4)nc3c2)c1 [Compound 145] | 871 nM | > 1000 nM | <5 |  | > 10 µM |
| COc1cc(OC)cc(N(CCCNCC(=O)O)c2ccc3ncc(-c4ccnc(C(=O)NCCCCN)c4)nc3c2)c1 [Compound 44] | 51.3 nM | 302 nM | <5 |  | > 10 µM |
| COc1cc(OC)cc(N(CCN2CCOCC2)c2ccc3ncc(-c4ccc(N)nc4)nc3c2)c1 [Compound 169] | 53.7 nM | 126 nM | 5.1 |  | > 10 µM |

The next lines start with results.

| IC50 (FGFR4 (h)) | IC50 (KDR (h) (VEGFR2)) | BAF3-KDR (MIN IL3) 384 well pIC50 ([2]; minus IL3) | BAF3-KDR (MIN IL3) 384 well pIC50 ([2]; minus IL3, 384 well) | SMILES | IC50 [1] |
| --- | --- | --- | --- | --- | --- |
| 95.5 nM | 407 nM | <5 |  | COc1cc(OC)cc(N(CCO)c2ccc3ncc(-c4ccc(N5CCN(C(=O)OC(C)(C)C)CC5)cc4)nc3c2)c1 [Compound 156] | 8.91 µM |
| 31.6 nM | 251 nM | <5 |  | COc1cc(OC)cc(N(CCNC(C)C)c2ccc3ncc(-n4cnc(COC(C)=O)c4)nc3c2)c1 [Compound 167] | > 10 µM |
| 871 nM | > 1000 nM | <5 |  | COc1cc(OC)cc(N(CCO)c2ccc3ncc(/C(C)=N/OC(C)(C)C)nc3c2)c1 [Compound 171] | > 10 µM |
| 21.4 nM | 200 nM | 5.37 |  | COc1cc(OC)cc(N(CCCNC(C)C)c2ccc3ncc(-c4ccnc(NC(=O)NC(C)C)c4)nc3c2)c1 [Compound 131] | 3.98 µM |
| 17.8 nM | 170 nM | <5 |  | COc1cc(OC)cc(N(CCO)c2ccc3ncc(-c4ccc(N5CCOCC5)nc4)nc3c2)c1 [Compound 19] | > 10 µM |
| 97.7 nM | 692 nM | <5 |  | COc1cc(OC)cc(N(CCO)c2ccc3ncc(-c4ccnc(C(=O)NCCCCCO)c4)nc3c2)c1 [Compound 139] | > 10 µM |
| 100 nM | 479 nM | <5 |  | COc1cc(OC)cc(N(CCO)c2ccc3ncc(C4=CCN(C(=O)OC(C)(C)C)C4)nc3c2)c1 [Compound 173] | > 10 µM |
| 49 nM | 269 nM | <5 |  | COc1cc(OC)cc(N(CCNC(C)C)c2ccc3ncc(-c4ccnc(C(=O)NCCCN)c4)nc3c2)c1 [Compound 146] | > 10 µM |
| 8.51 nM | 22.4 nM | 5.45 |  | COc1cc(OC)cc(N(CCN)c2ccc3ncc(-c4ccn(C)c4)nc3c2)c1 [Compound 79] | > 10 µM |
| 2290 nM | 6610 nM |  | <5 | COc1cc(OC)cc(N(CC2CC2)c2ccc3ncc(N4CCOCC4)nc3c2)c1 [Compound 63] | > 10 µM |
| 52.5 nM | 513 nM | 5.29 |  | COc1cc(OC)cc(N(CCNC(C)C)c2ccc3ncc(-n4cnc(CO)c4)nc3c2)c1 [Compound 77] | > 10 µM |
| 479 nM | > 1000 nM | <5 |  | COc1cc(OC)cc(N(CCCNCC(F)(F)F)c2ccc3ncc(-c4cnc(OC)nc4)nc3c2)c1 [Compound 26] | > 10 µM |
| 47.9 nM | 295 nM | <5 |  | COCC(O)CN(c1cc(OC)cc(OC)c1)c1ccc2ncc(-c3cccnc3)nc2c1 (single isomer, unassigned) [Compound 46] | > 10 µM |
| 275 nM | 1660 nM |  | <5 | COc1cc(OC)cc(N(CC2CC2)c2ccc3ncc(C#Cc4cncn4C)nc3c2)c1 [Compound 22] | > 10 µM |
| 603 nM | > 1000 nM | <5 |  | COc1cc(OC)cc(N(CCCNCC(F)(F)F)c2ccc3ncc(-c4ccnc(C(=O)NCCCN)c4)nc3c2)c1 [Compound 148] | > 10 µM |
| 28.8 nM | 129 nM | 5.36 |  | COc1cc(OC)cc(N(CCO)c2ccc3ncc(-c4ccc(N5CCNCC5)nc4)nc3c2)c1 [Compound 165] | 6.61 µM |
| 427 nM | > 1000 nM | <5 |  | COc1cc(OC)cc(N(CC#Cc2ncccc2OC)c2ccc3ncc(-c4cccnc4)nc3c2)c1 [Compound 183] | > 10 µM |

Reference: patent publication US10052320B2, “Substituted quinoxalines as FGFR kinase inhibitors” (ASTEX THERAPEUTICS LIMITED, priority 2011, dated 2018)
